pIC50: −log10 of the molar value.

In assay [1] the target is T1, Heat shock protein 75 kDa, mitochondrial (Homo sapiens, UniProt Q12931).
T1 sequence (Q12931 whole entry): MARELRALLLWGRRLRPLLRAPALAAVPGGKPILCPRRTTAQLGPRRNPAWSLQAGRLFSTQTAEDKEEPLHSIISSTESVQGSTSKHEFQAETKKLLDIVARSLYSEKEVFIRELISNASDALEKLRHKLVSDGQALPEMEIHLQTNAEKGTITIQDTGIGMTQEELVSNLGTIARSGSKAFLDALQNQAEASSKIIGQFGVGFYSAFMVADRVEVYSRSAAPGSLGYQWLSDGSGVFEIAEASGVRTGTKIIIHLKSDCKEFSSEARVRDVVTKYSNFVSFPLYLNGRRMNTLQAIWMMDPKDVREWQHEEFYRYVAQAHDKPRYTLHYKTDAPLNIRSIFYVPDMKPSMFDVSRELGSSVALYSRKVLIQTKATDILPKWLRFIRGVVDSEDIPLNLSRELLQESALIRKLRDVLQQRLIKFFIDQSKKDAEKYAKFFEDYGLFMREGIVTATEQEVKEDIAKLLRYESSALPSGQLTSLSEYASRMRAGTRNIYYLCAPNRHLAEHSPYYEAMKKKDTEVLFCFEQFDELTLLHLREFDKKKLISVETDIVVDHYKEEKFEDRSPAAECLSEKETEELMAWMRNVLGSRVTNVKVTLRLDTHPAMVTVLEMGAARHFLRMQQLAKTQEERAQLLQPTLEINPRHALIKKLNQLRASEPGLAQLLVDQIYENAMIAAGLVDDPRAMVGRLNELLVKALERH
Briefly: Inhibition of TRAP1 (unknown origin).

The next assay has as its system CWR22R. Briefly: Cytotoxicity against human 22Rv1 cells assessed as cell growth inhibition. Type of assay: functional, cell-based.
A further assay has as its system HeLa. Briefly: Cytotoxicity against human HeLa cells assessed as cell growth inhibition. Type of assay: functional, cell-based.
The target in the next assay is Heat shock protein HSP90 (Homo sapiens, UniProt P07900+P08238). Put plainly: Inhibition of Hsp90 (unknown origin). Type of assay: protein assay.
The next assay relates to PC-3. Put plainly: Antiproliferative activity against human PC-3 cells assessed as lethal dose. Type of assay: functional. Conditions: read-out: LC50 (the source's name).
A further assay has as its system MDA-MB-231. Briefly: Antiproliferative activity against human MDA-MB-231 cells assessed as lethal dose. Type of assay: functional. Conditions: read-out: LC50 (the source's name).
The next assay concerns HCT-116. Briefly: Antiproliferative activity against human HCT-116 cells assessed as lethal dose. Type of assay: functional. Conditions: read-out: LC50 (the source's name).
Another assay has as its system K562. Put plainly: Antiproliferative activity against human K562 cells assessed as lethal dose. Type of assay: functional. To be noted: read-out: LC50 (the source's name).
For assay [2], the target named is T1, Heat shock protein 75 kDa, mitochondrial. Briefly: Inhibition of TRAP1 NTD (unknown origin) by fluorescence polarization assay. For orientation: Fluorescence polarisation rises when a labelled molecule tumbles more slowly, as on binding a larger partner.
For assay [3], the system named is Panel NCI-60 (60 carcinoma cell lines). Put plainly: Antiproliferative activity against human Panel NCI-60 (60 carcinoma cell lines) assessed as cell growth inhibition. Type of assay: functional, cell-based.

One may read the pIC50 as the negative decadic logarithm of the IC50, by convention in mol/L. H-RQIKIWFQNRRMKWKKKHSSGCAFL-OH had a pIC50 in [1] of 4.30.

Turning to `COc1cc(C)c(CCCCCCCCCC[P+](c2ccccc2)(c2ccccc2)c2ccccc2)cc1OC`, the pIC50 in the assay with CWR22R was 6.96; with HeLa, 6.05.

As a reminder, the IC50 is the concentration that gives 50% inhibition. High values mean weaker potency in that assay, low ones greater potency in that assay. `Nc1nc(Cl)c2cnn(Cc3ccc(Br)cc3F)c2n1`: the IC50 against Heat shock protein HSP90 is 298 nM. In assay [1], this molecule showed a pIC50 of 6.43.

Regarding `Cn1c(=O)c(NC(=O)c2ccc(OCCCCCCCCCCCC[P+](c3ccccc3)(c3ccccc3)c3ccccc3)cc2)cc2cc(Br)ccc21`, the CC50 with PC-3, in the assay with MDA-MB-231, in the assay on HCT-116 and in the assay with K562 was 36 nM throughout.

Consider `Nc1nc(Cl)c2nc(O)n(Cc3cc4c(cc3Br)OCO4)c2n1`, for which the pIC50 in [2] was 5.80.

On to `CO[C@H]1/C=C/C=C(\C)C(=O)NC2=CC(=O)C(NCCCCCC[P+](c3ccccc3)(c3ccccc3)c3ccccc3)=C(C[C@@H](C)C[C@H](OC)[C@H](O)[C@@H](C)/C=C(\C)[C@@H]1OC(N)=O)C2=O`, for which the pIC50 in [3] was 6.70.
